Here are results for twelve compounds from patent US9605004B2, “Chemical compounds” (SYNGENTA LIMITED, priority 2013, dated 2017).

The subject of assay [1] is a variety of test species. Briefly: Post-emergence herbicidal activity (Example 8b, Table 3). The following applies: application post-emergence, rate 1000 g/ha, evaluated after 13 days, scale 0-5; for Herbicidal damage score, ABUTH: Abutilon theophrasti; for Herbicidal damage score, ALOMY: Alopecurus myosuroides; for Herbicidal damage score, AMARE: Amaranthus retroflexus; for Herbicidal damage score, ECHCG: Echinochloa crus-galli; for Herbicidal damage score, SETFA: Setaria faberi; for Herbicidal damage score, ZEAMX: Zea mays. Type of assay: in vivo. The method in brief:
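Seeds were sown in standard soil and cultivated for 8 days under controlled glasshouse conditions. Seedlings were then sprayed with an aqueous solution of the formulated compound containing 0.5% Tween 20. Injury was rated after a further 13 days, where 5 indicated total damage.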

Assay [2] has as its system a variety of test species. Kind of assay: Pre-emergence herbicidal activity (Example 8a, Table 2). The class given is in vivo. Details: key: 0 = no damage to plant, 5 = total damage to plant. The following applies: application pre-emergence, rate 1000 g/ha, evaluated after 13 days. The method in brief:
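Seeds sown in standard soil in pots, held one day in glasshouse (24/16 °C day/night, 14 h light, 65% humidity), then sprayed with aqueous solution of compound formulated in acetone/water 50:50 with 0.5% Tween 20. Grown on under same conditions, watered twice daily; damage scored after 13 days (0 = none, 5 = total).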

Take `CC1=C(Cl)C(=O)N(c2cc(C(F)(F)C(F)(F)F)n(C)n2)C1O` (stereo not drawn) [Compound B13]: in assay [1], the “Herbicidal damage score, ABUTH” value is given as 5; the “Herbicidal damage score, ALOMY” value was determined as 5; the “Herbicidal damage score, AMARE” value is listed as 5; the “Herbicidal damage score, ECHCG” value is listed as 5. Moreover, in assay [1], the “Herbicidal damage score, SETFA” value was 5 and the “Herbicidal damage score, ZEAMX” value is given as 3. Besides, in assay [2], the “Pre-emergence herbicidal activity, damage score ABUTH” value was determined as 5; the “Pre-emergence herbicidal activity, damage score ALOMY” value was determined as 4; the “Pre-emergence herbicidal activity, damage score AMARE” value is 5; the “Pre-emergence herbicidal activity, damage score ECHCG” value was found to be 5. In addition, in assay [2], the “Pre-emergence herbicidal activity, damage score SETFA” value was determined as 5 and the “Pre-emergence herbicidal activity, damage score ZEAMX” value was found to be 2.

Take `CC1=C(Cl)C(=O)N(c2cc3n(n2)CCSC3(C)C)C1O` (stereo not drawn) [Compound G10]: in assay [1], the “Herbicidal damage score, ABUTH” value is given as 5; the “Herbicidal damage score, ALOMY” value is 5; the “Herbicidal damage score, AMARE” value amounted to 5; the “Herbicidal damage score, ECHCG” value was determined as 5. In assay [1], the “Herbicidal damage score, SETFA” value worked out at 5 and the “Herbicidal damage score, ZEAMX” value amounted to 4. Further, in assay [2], the “Pre-emergence herbicidal activity, damage score ABUTH” value is on record as 5; the “Pre-emergence herbicidal activity, damage score ALOMY” value worked out at 3; the “Pre-emergence herbicidal activity, damage score AMARE” value was found to be 5; the “Pre-emergence herbicidal activity, damage score ECHCG” value stood at 5. In assay [2], the “Pre-emergence herbicidal activity, damage score SETFA” value was found to be 4 and the “Pre-emergence herbicidal activity, damage score ZEAMX” value is on record as 4.

On to `COC1=C(OC)C(O)N(c2cc(C(C)(C)C)n(C)n2)C1=O` (stereo not drawn) [Compound T1], for which, in assay [1], the “Herbicidal damage score, ABUTH” value was 5; the “Herbicidal damage score, ALOMY” value came to 5; the “Herbicidal damage score, AMARE” value stood at 5; the “Herbicidal damage score, ECHCG” value was 5. In assay [1], the “Herbicidal damage score, SETFA” value came out at 5 and the “Herbicidal damage score, ZEAMX” value amounted to 3. Moreover, in assay [2], the “Pre-emergence herbicidal activity, damage score ABUTH” value is reported as 5; the “Pre-emergence herbicidal activity, damage score ALOMY” value turned out to be 4; the “Pre-emergence herbicidal activity, damage score AMARE” value is given as 5; the “Pre-emergence herbicidal activity, damage score ECHCG” value was found to be 5. For the same compound, in assay [2], the “Pre-emergence herbicidal activity, damage score SETFA” value was determined as 4 and the “Pre-emergence herbicidal activity, damage score ZEAMX” value is given as 2.

Regarding `CC1=C(Cl)C(=O)N(c2cc(C(F)(F)C(F)(F)F)[nH]n2)C1O` (stereo not drawn) [Compound A6], in assay [1], the “Herbicidal damage score, ABUTH” value is reported as 5; the “Herbicidal damage score, ALOMY” value was found to be 5; the “Herbicidal damage score, AMARE” value turned out to be 5; the “Herbicidal damage score, ECHCG” value came to 5. Further, in assay [1], the “Herbicidal damage score, SETFA” value is on record as 4 and the “Herbicidal damage score, ZEAMX” value stood at 4. In assay [2], the “Pre-emergence herbicidal activity, damage score ABUTH” value came out at 5; the “Pre-emergence herbicidal activity, damage score ALOMY” value turned out to be 3; the “Pre-emergence herbicidal activity, damage score AMARE” value came out at 5; the “Pre-emergence herbicidal activity, damage score ECHCG” value is reported as 4. Also, in assay [2], the “Pre-emergence herbicidal activity, damage score SETFA” value amounted to 4 and the “Pre-emergence herbicidal activity, damage score ZEAMX” value worked out at 1.

As for `CCC(C)c1cc(N2C(=O)C(Cl)=C(C)C2O)nn1C` (stereo not drawn) [Compound B33], in assay [1], the “Herbicidal damage score, ABUTH” value is given as 5; the “Herbicidal damage score, ALOMY” value was determined as 5; the “Herbicidal damage score, AMARE” value amounted to 5; the “Herbicidal damage score, ECHCG” value is listed as 5. In addition, in assay [1], the “Herbicidal damage score, SETFA” value came out at 5 and the “Herbicidal damage score, ZEAMX” value is on record as 5. In assay [2], the “Pre-emergence herbicidal activity, damage score ABUTH” value was found to be 5; the “Pre-emergence herbicidal activity, damage score ALOMY” value turned out to be 4; the “Pre-emergence herbicidal activity, damage score AMARE” value turned out to be 5; the “Pre-emergence herbicidal activity, damage score ECHCG” value is listed as 5. Further, in assay [2], the “Pre-emergence herbicidal activity, damage score SETFA” value is listed as 5 and the “Pre-emergence herbicidal activity, damage score ZEAMX” value was 4.

`CC1=C(Br)C(=O)N(c2cc3n(n2)CCS(=O)(=O)C3(C)C)C1O` (stereo not drawn) [Compound M4]: in assay [1], the “Herbicidal damage score, ABUTH” value was determined as 5; the “Herbicidal damage score, ALOMY” value stood at 4; the “Herbicidal damage score, AMARE” value stood at 5; the “Herbicidal damage score, ECHCG” value is 5. Also, in assay [1], the “Herbicidal damage score, SETFA” value was 4 and the “Herbicidal damage score, ZEAMX” value came to 0. For the same compound, in assay [2], the “Pre-emergence herbicidal activity, damage score ABUTH” value is 5; the “Pre-emergence herbicidal activity, damage score ALOMY” value was determined as 2; the “Pre-emergence herbicidal activity, damage score AMARE” value is 5; the “Pre-emergence herbicidal activity, damage score ECHCG” value is 2. Also, in assay [2], the “Pre-emergence herbicidal activity, damage score SETFA” value was 2 and the “Pre-emergence herbicidal activity, damage score ZEAMX” value was found to be 1.

Regarding `CC1=C(Cl)C(=O)N(c2cc3n(n2)CC[S+]([O-])C3(C)C)C1O` (mixture of isomers) [Compound G12], in assay [1], the “Herbicidal damage score, ABUTH” value was found to be 4; the “Herbicidal damage score, ALOMY” value worked out at 3; the “Herbicidal damage score, AMARE” value is listed as 4; the “Herbicidal damage score, ECHCG” value is given as 4. Further, in assay [1], the “Herbicidal damage score, SETFA” value is 3 and the “Herbicidal damage score, ZEAMX” value amounted to 1. Further, in assay [2], the “Pre-emergence herbicidal activity, damage score ABUTH” value amounted to 4; the “Pre-emergence herbicidal activity, damage score ALOMY” value is listed as 3; the “Pre-emergence herbicidal activity, damage score AMARE” value worked out at 4; the “Pre-emergence herbicidal activity, damage score ECHCG” value came out at 4. Besides, in assay [2], the “Pre-emergence herbicidal activity, damage score SETFA” value is given as 3 and the “Pre-emergence herbicidal activity, damage score ZEAMX” value worked out at 3.

Consider `CC1=C(Cl)C(=O)N(c2cc(C)n(C)n2)C1O` (stereo not drawn) [Compound B1], for which, in assay [1], the “Herbicidal damage score, ABUTH” value is recorded as 5; the “Herbicidal damage score, ALOMY” value turned out to be 4; the “Herbicidal damage score, AMARE” value is 5; the “Herbicidal damage score, ECHCG” value worked out at 5. In assay [1], the “Herbicidal damage score, SETFA” value worked out at 5 and the “Herbicidal damage score, ZEAMX” value is given as 5. In addition, in assay [2], the “Pre-emergence herbicidal activity, damage score ABUTH” value is on record as 5; the “Pre-emergence herbicidal activity, damage score ALOMY” value worked out at 3; the “Pre-emergence herbicidal activity, damage score AMARE” value was 5; the “Pre-emergence herbicidal activity, damage score ECHCG” value is listed as 4. Besides, in assay [2], the “Pre-emergence herbicidal activity, damage score SETFA” value came out at 4 and the “Pre-emergence herbicidal activity, damage score ZEAMX” value is recorded as 3.

With `CC1=C(Cl)C(=O)N(c2cc(C(C)C)n(C)n2)C1O` (stereo not drawn) [Compound B5], in assay [1], the “Herbicidal damage score, ABUTH” value came out at 5; the “Herbicidal damage score, ALOMY” value came to 4; the “Herbicidal damage score, AMARE” value worked out at 5; the “Herbicidal damage score, ECHCG” value is 5. For the same compound, in assay [1], the “Herbicidal damage score, SETFA” value is listed as 4 and the “Herbicidal damage score, ZEAMX” value was 5. Besides, in assay [2], the “Pre-emergence herbicidal activity, damage score ABUTH” value was 5; the “Pre-emergence herbicidal activity, damage score ALOMY” value is on record as 3; the “Pre-emergence herbicidal activity, damage score AMARE” value came to 5; the “Pre-emergence herbicidal activity, damage score ECHCG” value is 5. For the same compound, in assay [2], the “Pre-emergence herbicidal activity, damage score SETFA” value was 4 and the “Pre-emergence herbicidal activity, damage score ZEAMX” value worked out at 2.

`CCOC(c1cc(N2C(=O)C(Cl)=C(C)C2O)nn1C)C(C)(C)C` (mixture of isomers) [Compound B34]: in assay [1], the “Herbicidal damage score, ABUTH” value came out at 5; the “Herbicidal damage score, ALOMY” value came out at 3; the “Herbicidal damage score, AMARE” value was determined as 2; the “Herbicidal damage score, ECHCG” value is reported as 3. In assay [1], the “Herbicidal damage score, SETFA” value turned out to be 3 and the “Herbicidal damage score, ZEAMX” value came out at 0. Also, in assay [2], the “Pre-emergence herbicidal activity, damage score ABUTH” value was found to be 4; the “Pre-emergence herbicidal activity, damage score ALOMY” value was 2; the “Pre-emergence herbicidal activity, damage score AMARE” value is reported as 2; the “Pre-emergence herbicidal activity, damage score ECHCG” value came to 3. Besides, in assay [2], the “Pre-emergence herbicidal activity, damage score SETFA” value worked out at 1 and the “Pre-emergence herbicidal activity, damage score ZEAMX” value turned out to be 1.

Regarding `CC#Cc1cc(N2C(=O)C(Cl)=C(C)C2O)nn1C` (stereo not drawn) [Compound B35], in assay [1], the “Herbicidal damage score, ABUTH” value amounted to 4; the “Herbicidal damage score, ALOMY” value came out at 1; the “Herbicidal damage score, AMARE” value is 1; the “Herbicidal damage score, ECHCG” value came to 4. Moreover, in assay [1], the “Herbicidal damage score, SETFA” value was determined as 4 and the “Herbicidal damage score, ZEAMX” value amounted to 0. In assay [2], the “Pre-emergence herbicidal activity, damage score ABUTH” value was determined as 3; the “Pre-emergence herbicidal activity, damage score ALOMY” value is reported as 1; the “Pre-emergence herbicidal activity, damage score AMARE” value is reported as 5; the “Pre-emergence herbicidal activity, damage score ECHCG” value is reported as 4. For the same compound, in assay [2], the “Pre-emergence herbicidal activity, damage score SETFA” value turned out to be 3 and the “Pre-emergence herbicidal activity, damage score ZEAMX” value is 0.

`CC1=C(Cl)C(=O)N(c2cc(C#N)n(CC(F)(F)F)n2)C1O` (stereo not drawn) [Compound C11]: in assay [1], the “Herbicidal damage score, ABUTH” value was 5; the “Herbicidal damage score, ALOMY” value is recorded as 2; the “Herbicidal damage score, AMARE” value is reported as 1; the “Herbicidal damage score, ECHCG” value came to 4. Further, in assay [1], the “Herbicidal damage score, SETFA” value came out at 3 and the “Herbicidal damage score, ZEAMX” value came out at 2. In assay [2], the “Pre-emergence herbicidal activity, damage score ABUTH” value came out at 5; the “Pre-emergence herbicidal activity, damage score ALOMY” value is given as 0; the “Pre-emergence herbicidal activity, damage score AMARE” value came to 2; the “Pre-emergence herbicidal activity, damage score ECHCG” value is 1. Moreover, in assay [2], the “Pre-emergence herbicidal activity, damage score SETFA” value is 1 and the “Pre-emergence herbicidal activity, damage score ZEAMX” value is recorded as 1.
